Measured values reported in patent publication US20050014215A1, “Method and medium for the detecting/identifying microorganisms with esterase and/or r osidase and/or peptidase and/or sulfatase and/or phosphatase activity” (priority 2000, published 2005).
Read-outs that look alike come from different tables or passages of the source.

Columns and labels:
[1] = Substrate solubility with different FASE (Example 8); assay type: physicochemical
Protocol: Different stock solutions of substrate are prepared in DMSO in the presence of Tween® 20, Tween® 80 (polyethoxylated sorbitan monooleate), Tween® 60 (polyethoxylated sorbitan monostearate) or Tween® 65 (polyethoxylated sorbitan tristearate). A volume corresponding to a final concentration of 500 mg/l of substrate is then added to a supercooled gelled medium, namely MacConkey medium.

[2] = Appearance of stock solutions of 2-alizarin octanoate in solvent/Tween 20 (Example 7); assay type: physicochemical; details: 60% Tween 20
Protocol: The substrate tested is 1,2-dihydroxyanthraquinone octanoate (2-alizarin octanoate). Different stock solutions of substrate are prepared with DMF, DMSO, methanol or methoxyethanol as solvent and in the presence of Tween® 20 in all cases.

[3] = system: Pseudomonas aeruginosa 165; assay: Colony coloration on fresh and stored media, Example 10 (6-chloro-3-indolyl-β-N-acetylglucosaminide, Columbia); assay type: cell-based; parameters: key: M: magenta; —: colorless
Protocol: (§1) Two stock solutions of substrate were prepared, one having a concentration of 50 g/l in DMF and the other having a concentration of 50 g/l in a mixture of DMF (40%) and Tween® 20 (60%). A volume corresponding to a final concentration of 175 mg/l of substrate was then added to a supercooled gelled medium, namely Columbia medium not supplemented with blood. […] After three weeks, six weeks, nine weeks and twelve weeks, two media like those described above were prepared for immediate use.
(§2) Microorganisms originating from the Applicant's collection were inoculated from a 0.5 McFarland suspension, by isolation in three quadrants, onto the two media prepared for immediate use and the two media stored at +4° C. The dishes were incubated at 37° C. for 48 hours. The colonies formed were examined visually after 24 and 48 hours of incubation. The coloration of these colonies and the intensity of this coloration were noted.

Staphylococcus aureus 20 = assay: as above; assay type: cell-based; parameters: key: M: magenta; —: colorless
Protocol: as §1, §2

[4] = system: Listeria monocytogenes 23; assay: as above; assay type: cell-based; parameters: key to intensity of coloration (arbitrary scale): 0: no activity; 0.1: trace of coloration; 0.5: very pale coloration; 1: distinct coloration of low intensity; 2: clear coloration of medium intensity; 3: intense coloration; 4: very intense coloration; —: absence of coloration or intensity; key to color: M: magenta; —: colorless
Protocol: as §1, §2

Listeria ivanovii 18 = assay: as above; assay type: cell-based; parameters: key to intensity of coloration (arbitrary scale): 0: no activity; 0.1: trace of coloration; 0.5: very pale coloration; 1: distinct coloration of low intensity; 2: clear coloration of medium intensity; 3: intense coloration; 4: very intense coloration; —: absence of coloration or intensity; key to color: M: magenta; —: colorless
Protocol: as §1, §2

Listeria innocua 36 = assay: as above; assay type: cell-based; parameters: key to intensity of coloration (arbitrary scale): 0: no activity; 0.1: trace of coloration; 0.5: very pale coloration; 1: distinct coloration of low intensity; 2: clear coloration of medium intensity; 3: intense coloration; 4: very intense coloration; —: absence of coloration or intensity; key to color: M: magenta; —: colorless
Protocol: as §1, §2

[5] = IT 24 h, fresh medium, DMF Tween 20, 6-week comparison
[6] = IT 24 h, fresh medium, DMF Tween 20, 9-week comparison
[7] = IT 24 h, fresh medium, DMF Tween 20, 12-week comparison
[8] = IT 24 h, fresh medium, DMF, 6-week comparison
[9] = IT 24 h, fresh medium, DMF, 9-week comparison
[10] = IT 24 h, fresh medium, DMF, 12-week comparison
[11] = IT 24 h, medium stored for 6 weeks at +4° C., DMF
[12] = IT 24 h, medium stored for 6 weeks at +4° C., DMF Tween 20
[13] = IT 24 h, medium stored for 9 weeks at +4° C., DMF
[14] = IT 24 h, medium stored for 9 weeks at +4° C., DMF Tween 20
[15] = IT 24 h, medium stored for 12 weeks at +4° C., DMF
[16] = IT 24 h, medium stored for 12 weeks at +4° C., DMF Tween 20
[17] = IT 48 h, fresh medium, DMF Tween 20, 6-week comparison
[18] = IT 48 h, fresh medium, DMF Tween 20, 9-week comparison
[19] = IT 48 h, fresh medium, DMF Tween 20, 12-week comparison
[20] = IT 48 h, fresh medium, DMF, 6-week comparison
[21] = IT 48 h, fresh medium, DMF, 9-week comparison
[22] = IT 48 h, fresh medium, DMF, 12-week comparison
[23] = IT 48 h, medium stored for 6 weeks at +4° C., DMF
[24] = IT 48 h, medium stored for 6 weeks at +4° C., DMF Tween 20
[25] = IT 48 h, medium stored for 9 weeks at +4° C., DMF
[26] = IT 48 h, medium stored for 9 weeks at +4° C., DMF Tween 20
[27] = IT 48 h, medium stored for 12 weeks at +4° C., DMF
[28] = IT 48 h, medium stored for 12 weeks at +4° C., DMF Tween 20

polyethoxylated sorbitan monostearate (20 EO) [TWEEN® 60]
good substrate solubility: substrate solubility [1]

polyethoxylated sorbitan monooleate (20 EO) [TWEEN® 80]
good substrate solubility: substrate solubility [1]

1,2-dihydroxyanthraquinone octanoate [2-alizarin octanoate]
total: Appearance of the stock solution ([2]; 40% DMF) | Appearance of the stock solution ([2]; 40% methoxyethanol)
precipitate: Appearance of the stock solution ([2]; 40% DMSO) | Appearance of the stock solution ([2]; 40% methanol)

CC(=O)N[C@H]1[C@H](Oc2c[nH]c3cc(Cl)ccc23)O[C@H](CO)[C@@H](O)[C@@H]1O
1.5: intensity of coloration (arbitrary scale) (Listeria ivanovii 18; [5]) | intensity of coloration (arbitrary scale) (Listeria ivanovii 18; [6]) | intensity of coloration (arbitrary scale) (Listeria ivanovii 18; [7]) | intensity of coloration (arbitrary scale) (Listeria ivanovii 18; [8]) | intensity of coloration (arbitrary scale) (Listeria ivanovii 18; [9]) | intensity of coloration (arbitrary scale) (Listeria ivanovii 18; [10]) | intensity of coloration (arbitrary scale) (Listeria ivanovii 18; [12]) | intensity of coloration (arbitrary scale) (Listeria innocua 36; [14])
M: color [4, 5] | color [4, 6] | color [4, 7] | color [4, 8] | color [4, 9] | color [4, 10] | color [4, 11] | color [4, 12] | color [4, 13] | color [4, 14] | color [4, 15] | color [4, 16] | color [4, 17] | color [4, 18] | color [4, 19] | color [4, 20] | color [4, 21] | color [4, 22] | color [4, 23] | color [4, 24] | color [4, 25] | color [4, 26] | color [4, 27] | color [4, 28] | color (Listeria ivanovii 18; [5]) | color (Listeria ivanovii 18; [6]) | color (Listeria ivanovii 18; [7]) | color (Listeria ivanovii 18; [8]) | color (Listeria ivanovii 18; [9]) | color (Listeria ivanovii 18; [10]) | color (Listeria ivanovii 18; [11]) | color (Listeria ivanovii 18; [12]) | color (Listeria ivanovii 18; [13]) | color (Listeria ivanovii 18; [14]) | color (Listeria ivanovii 18; [15]) | color (Listeria ivanovii 18; [16]) | color (Listeria ivanovii 18; [17]) | color (Listeria ivanovii 18; [18]) | color (Listeria ivanovii 18; [19]) | color (Listeria ivanovii 18; [20]) | color (Listeria ivanovii 18; [21]) | color (Listeria ivanovii 18; [22]) | color (Listeria ivanovii 18; [23]) | color (Listeria ivanovii 18; [24]) | color (Listeria ivanovii 18; [25]) | color (Listeria ivanovii 18; [26]) | color (Listeria ivanovii 18; [27]) | color (Listeria ivanovii 18; [28]) | color (Listeria innocua 36; [5]) | color (Listeria innocua 36; [6]) | color (Listeria innocua 36; [7]) | color (Listeria innocua 36; [8]) | color (Listeria innocua 36; [9]) | color (Listeria innocua 36; [10]) | color (Listeria innocua 36; [11]) | color (Listeria innocua 36; [12]) | color (Listeria innocua 36; [13]) | color (Listeria innocua 36; [14]) | color (Listeria innocua 36; [15]) | color (Listeria innocua 36; [16]) | color (Listeria innocua 36; [17]) | color (Listeria innocua 36; [18]) | color (Listeria innocua 36; [19]) | color (Listeria innocua 36; [20]) | color (Listeria innocua 36; [21]) | color (Listeria innocua 36; [22]) | color (Listeria innocua 36; [23]) | color (Listeria innocua 36; [24]) | color (Listeria innocua 36; [25]) | color (Listeria innocua 36; [26]) | color (Listeria innocua 36; [27]) | color (Listeria innocua 36; [28])
3: intensity of coloration (arbitrary scale) [4, 17] | intensity of coloration (arbitrary scale) [4, 18] | intensity of coloration (arbitrary scale) [4, 19] | intensity of coloration (arbitrary scale) [4, 20] | intensity of coloration (arbitrary scale) [4, 21] | intensity of coloration (arbitrary scale) [4, 22] | intensity of coloration (arbitrary scale) [4, 24] | intensity of coloration (arbitrary scale) (Listeria innocua 36; [17]) | intensity of coloration (arbitrary scale) (Listeria innocua 36; [18]) | intensity of coloration (arbitrary scale) (Listeria innocua 36; [19]) | intensity of coloration (arbitrary scale) (Listeria innocua 36; [20]) | intensity of coloration (arbitrary scale) (Listeria innocua 36; [21]) | intensity of coloration (arbitrary scale) (Listeria innocua 36; [22]) | intensity of coloration (arbitrary scale) (Listeria innocua 36; [24])
—: color [3, 5] | color [3, 6] | color [3, 7] | color [3, 8] | color [3, 9] | color [3, 10] | color [3, 11] | color [3, 12] | color [3, 13] | color [3, 14] | color [3, 15] | color [3, 16] | color [3, 17] | color [3, 18] | color [3, 19] | color [3, 20] | color [3, 21] | color [3, 22] | color [3, 23] | color [3, 24] | color [3, 25] | color [3, 26] | color [3, 27] | color [3, 28] | color (Staphylococcus aureus 20; [5]) | color (Staphylococcus aureus 20; [6]) | color (Staphylococcus aureus 20; [7]) | color (Staphylococcus aureus 20; [8]) | color (Staphylococcus aureus 20; [9]) | color (Staphylococcus aureus 20; [10]) | color (Staphylococcus aureus 20; [11]) | color (Staphylococcus aureus 20; [12]) | color (Staphylococcus aureus 20; [13]) | color (Staphylococcus aureus 20; [14]) | color (Staphylococcus aureus 20; [15]) | color (Staphylococcus aureus 20; [16]) | color (Staphylococcus aureus 20; [17]) | color (Staphylococcus aureus 20; [18]) | color (Staphylococcus aureus 20; [19]) | color (Staphylococcus aureus 20; [20]) | color (Staphylococcus aureus 20; [21]) | color (Staphylococcus aureus 20; [22]) | color (Staphylococcus aureus 20; [23]) | color (Staphylococcus aureus 20; [24]) | color (Staphylococcus aureus 20; [25]) | color (Staphylococcus aureus 20; [26]) | color (Staphylococcus aureus 20; [27]) | color (Staphylococcus aureus 20; [28])
2.5: intensity of coloration (arbitrary scale) (Listeria ivanovii 18; [17]) | intensity of coloration (arbitrary scale) (Listeria ivanovii 18; [18]) | intensity of coloration (arbitrary scale) (Listeria ivanovii 18; [19]) | intensity of coloration (arbitrary scale) (Listeria ivanovii 18; [20]) | intensity of coloration (arbitrary scale) (Listeria ivanovii 18; [21]) | intensity of coloration (arbitrary scale) (Listeria ivanovii 18; [22]) | intensity of coloration (arbitrary scale) (Listeria ivanovii 18; [24]) | intensity of coloration (arbitrary scale) (Listeria ivanovii 18; [26]) | intensity of coloration (arbitrary scale) (Listeria innocua 36; [26]) | intensity of coloration (arbitrary scale) (Listeria innocua 36; [28])
1: intensity of coloration (arbitrary scale) [4, 11] | intensity of coloration (arbitrary scale) [4, 14] | intensity of coloration (arbitrary scale) [4, 16] | intensity of coloration (arbitrary scale) (Listeria ivanovii 18; [14]) | intensity of coloration (arbitrary scale) (Listeria ivanovii 18; [16]) | intensity of coloration (arbitrary scale) (Listeria innocua 36; [11]) | intensity of coloration (arbitrary scale) (Listeria innocua 36; [16]) | intensity of coloration (arbitrary scale) (Listeria innocua 36; [25])
0.5: intensity of coloration (arbitrary scale) [4, 13] | intensity of coloration (arbitrary scale) [4, 25] | intensity of coloration (arbitrary scale) (Listeria ivanovii 18; [11]) | intensity of coloration (arbitrary scale) (Listeria ivanovii 18; [25]) | intensity of coloration (arbitrary scale) (Listeria innocua 36; [13]) | intensity of coloration (arbitrary scale) (Listeria innocua 36; [27])
2: intensity of coloration (arbitrary scale) [4, 5] | intensity of coloration (arbitrary scale) [4, 6] | intensity of coloration (arbitrary scale) [4, 7] | intensity of coloration (arbitrary scale) [4, 8] | intensity of coloration (arbitrary scale) [4, 9] | intensity of coloration (arbitrary scale) [4, 10] | intensity of coloration (arbitrary scale) [4, 12] | intensity of coloration (arbitrary scale) [4, 23] | intensity of coloration (arbitrary scale) [4, 26] | intensity of coloration (arbitrary scale) [4, 28] | intensity of coloration (arbitrary scale) (Listeria ivanovii 18; [23]) | intensity of coloration (arbitrary scale) (Listeria ivanovii 18; [28]) | intensity of coloration (arbitrary scale) (Listeria innocua 36; [5]) | intensity of coloration (arbitrary scale) (Listeria innocua 36; [6]) | intensity of coloration (arbitrary scale) (Listeria innocua 36; [7]) | intensity of coloration (arbitrary scale) (Listeria innocua 36; [8]) | intensity of coloration (arbitrary scale) (Listeria innocua 36; [9]) | intensity of coloration (arbitrary scale) (Listeria innocua 36; [10]) | intensity of coloration (arbitrary scale) (Listeria innocua 36; [12]) | intensity of coloration (arbitrary scale) (Listeria innocua 36; [23])

polyethoxylated sorbitan monolaurate containing 20 units of ethylene oxide (EO) [TWEEN® 20]
good substrate solubility: substrate solubility ([1]; 40% DMSO, 60% Tween)
